Test results as given in patent publication US11498920B2, “4-(1H-imidazol-5-yl)-1H-pyrrolo[2, 3-b] pyridines for use in the treatment of leukaemias, lymphomas and solid tumors” (MASARYKOVA UNIVERZITA, priority 2018, dated 2022).

Key:
primary CLL cells = assay: Cytotoxicity, TMRE flow cytometry viability, primary CLL cells (Example II.1); format: cell-based; details: Homo sapiens, CLL cell, 6 hours, TMRE positive cells normalized to control, ratio to PF670462, <1 = higher cytotoxicity than PF670462, read-out: Viability of cells, Compound of formula I (100 μM), relative to PF670462 (100 μM), CLL primary cells
Protocol: (§1) The leukemia and lymphoma-derived cell lines [MEC-1 cell line (derived from chronic lymphocytic leukemia—CLL), Nalm-16 (acute lymphocytic leukemia—ALL), K562 (chronic myeloid leukemia—CML), HL-60 (acute myeloid leukemia—AML), Maver-1 and Mino (mantle cell lymphoma—MCL), BL-41 (Burkitt lymphoma—BL), WSU-NHL (follicular lymphoma—FL), SUDHL (diffuse large B-cell lymphoma—DLBCL)], primary CLL cells and nonmalignant control primary cells were cultured in suspension in flasks under the following conditions: RPMI 1640 medium (Hyclone) supplemented with 10% fetal bovine serum (FBS, Gibco) and 1% penicillin/streptomycin (Life Technologies), 37° C., 5% CO2 and 95% relative humidity, with optimal culture cell density 5×10^6 cells/mL in case of primary cells and 0.5-1×10^6 cells/mL in case of cell lines. The adherent cell lines [A375 (derived from malignant melanoma), MDA-MB-231 and MCF-7 (breast cancer), MIA-PA-CA and PANC1 (pancreatic cancer), PC3 (prostate cancer), OVCAR4 (ovarian cancer) and HEPG2 (hepatocellular carcinoma)] were cultured on plates under the same conditions using RPMI1640 or DMEM medium (Gibco) according to instructions provided by the distributor (DSMZ/ATCC).
(§2) Cytotoxicity of compounds of formula I was tested in two models representative for leukemia (primary CLL cells) and lymphoma (Maver-1 cells). The primary CLL cells and Maver-1 cells (MCL-derived) were incubated with inhibitors at 100 μM concentration or corresponding amount of solvent (DMSO, Sigma Aldrich) as 0.1×10^6 cells/200 μl per well in a 96-well plate. Experiments were performed in technical duplicates. Viability of cells was assessed after 6 hours in case of primary CLL cells and after 24 hours in case of Maver-1 cells.
(§3) Apoptosis-induced reduction of mitochondrial potential is detected as lower TMRE fluorescence. […] Relative values are presented, showing ratio to the effect of PF670462 (as the closest prior art). Relative value <1 indicates a higher cytotoxicity than PF670462.

[1] = system: Maver-1 cells (mantle cell lymphoma); assay: Cytotoxicity, TMRE flow cytometry viability, Maver-1 cells (Example II.1); format: cell-based; details: Homo sapiens, Maver1, 24 hours, TMRE positive cells normalized to control, ratio to PF670462, <1 = higher cytotoxicity than PF670462, read-out: Viability of cells, Compound of formula I (100 μM), relative to PF670462 (100 μM), Maver-1 cells (mantle cell lymphoma)
Protocol: as §1, §2, §3

SMILES	viability at 100 µM (primary CLL cells)	viability at 100 µM [1]
Fc1ccc(-c2ncn(Cc3cccs3)c2-c2ccnc3[nH]ccc23)cc1 [Preparative Example 84, 4-(4-(4-fluorophenyl)-1-(thiophen-2-ylmethyl)-1H-imidazol-5-yl)-1H-pyrrolo[2,3-b]pyridine]	48%	8%
CN(C)CCCS(=O)(=O)N[C@H]1CC[C@@H](n2cnc(-c3ccc(F)cc3)c2-c2ccnc3[nH]ccc23)CC1 [Preparative Example 100, 3-(dimethylamino)-N-((1R,4s)-4-(4-(4-fluorophenyl)-5-(1H-pyrrolo[2,3-b]pyridin-4-yl)-1H-imidazol-1-yl)cyclohexyl)propane-1-sulfonamide]	1%	0%
NC(=O)c1nc(-c2ccc(F)cc2)c(-c2ccnc3[nH]ccc23)n1C1CCCCC1 [Preparative Example 165, 1-cyclohexyl-4-(4-fluorophenyl)-5-(1H-pyrrolo[2,3-b]pyridin-4-yl)-1H-imidazole-2-carboxamide]	0%	0%
Brc1ccc(-c2ncn(C3CCCCC3)c2-c2ccnc3[nH]ccc23)cc1 [Preparative Example 10, 4-(4-(4-bromophenyl)-1-cyclohexyl-1H-imidazol-5-yl)-1H-pyrrolo[2,3-b]pyridine]	61%	46%
Fc1ccc(-c2ncn(Cc3c[nH]nn3)c2-c2ccnc3[nH]ccc23)cc1 [Preparative Example 153, 4-(1-((1H-1,2,3-triazol-4-yl)methyl)-4-(4-fluorophenyl)-1H-imidazol-5-yl)-1H-pyrrolo[2,3-b]pyridine]	117%	87%
Fc1ccc(-c2ncn(Cc3cc[nH]n3)c2-c2ccnc3[nH]ccc23)cc1 [Preparative Example 109, 4-(1-((1H-pyrazol-3-yl)methyl)-4-(4-fluorophenyl)-1H-imidazol-5-yl)-1H-pyrrolo[2,3-b]pyridine]	87%	31%
Fc1ccc(-c2ncn(C3CCCCC3)c2-c2ccnc3[nH]cc(Br)c23)cc1 [Preparative Example 134, 3-bromo-4-(1-cyclohexyl-4-(4-fluorophenyl)-1H-imidazol-5-yl)-1H-pyrrolo[2,3-b]pyridine]	22%	1%
CNC(=O)N1CCC(n2cnc(-c3ccc(F)cc3)c2-c2ccnc3[nH]ccc23)CC1 [Preparative Example 71, 4-(4-(4-fluorophenyl)-5-(1H-pyrrolo[2,3-b]pyridin-4-yl)-1H-imidazol-1-yl)-N-methylpiperidine-1-carboxamide]	87%	87%
CN(C)[C@H]1CC[C@H](n2cnc(-c3ccc(F)cc3)c2-c2ccnc3[nH]ccc23)CC1 [Preparative Example 125, (1S,4r)-4-(4-(4-fluorophenyl)-5-(1H-pyrrolo[2,3-b]pyridin-4-yl)-1H-imidazol-1-yl)-N,N-dimethylcyclohexan-1-amine]	28%	26%
CC(c1ccccc1)n1cnc(-c2ccc(F)cc2)c1-c1ccnc2[nH]ccc12 (stereo not drawn) [Preparative Example 146, 4-(4-(4-fluorophenyl)-1-(1-phenylethyl)-1H-imidazol-5-yl)-1H-pyrrolo[2,3-b]pyridine]	16%	0%
Fc1ccc(-c2ncn(C3CCC(F)(F)CC3)c2-c2ccnc3[nH]ccc23)cc1 [Preparative Example 35, 4-(1-(4,4-difluorocyclohexyl)-4-(4-fluorophenyl)-1H-imidazol-5-yl)-1H-pyrrolo[2,3-b]pyridine]	60%	44%
Fc1ccc(-c2ncn(C3CCCCCC3)c2-c2ccnc3[nH]ccc23)cc1 [Preparative Example 19, 4-(1-cycloheptyl-4-(4-fluorophenyl)-1H-imidazol-5-yl)-1H-pyrrolo[2,3-b]pyridine]	22%	33%
Nc1cc(-c2c(-c3ccc(F)cc3)ncn2C2CCCCC2)c2cc[nH]c2n1 [Preparative Example 170, 4-(1-cyclohexyl-4-(4-fluorophenyl)-1H-imidazol-5-yl)-1H-pyrrolo[2,3-b]pyridin-6-amine]	56%	6%
COC(=O)[C@H]1CC[C@H](n2cnc(-c3ccc(F)cc3)c2-c2ccnc3[nH]ccc23)CC1 [Preparative Example 34, Methyl trans-4-(4-(4-fluorophenyl)-5-(1H-pyrrolo[2,3-b]pyridin-4-yl)-1H-imidazol-1-yl)cyclohexane-1-carboxylate]	55%	89%
Fc1ccc(-c2nc(Cl)n(C3CCCCC3)c2-c2ccnc3[nH]ccc23)cc1 [Preparative Example 155, 4-(2-chloro-1-cyclohexyl-4-(4-fluorophenyl)-1H-imidazol-5-yl)-1H-pyrrolo[2,3-b]pyridine]	1%	0%
CN(C)[C@H]1CC[C@H](n2cnc(-c3ccc(F)c(Cl)c3)c2-c2ccnc3[nH]ccc23)CC1 [Preparative Example 142, (1R,4r)-4-(4-(3-chloro-4-fluorophenyl)-5-(1H-pyrrolo[2,3-b]pyridin-4-yl)-1H-imidazol-1-yl)-N,N-dimethylcyclohexan-1-amine]	5%	0%
Fc1ccc(-c2ncn(CCCOC(F)(F)F)c2-c2ccnc3[nH]ccc23)cc1 [Preparative Example 80]	49%	42%
CN1CCC(Cn2cnc(-c3ccc(F)cc3)c2-c2ccnc3[nH]ccc23)C1 (stereo not drawn) [Preparative Example 129, 4-(4-(4-fluorophenyl)-1-((1-methylpyrrolidin-3-yl)methyl)-1H-imidazol-5-yl)-1H-pyrrolo[2,3-b]pyridine]	78%	86%
CN1CCC(Cn2cnc(-c3ccc(F)c(Cl)c3)c2-c2ccnc3[nH]ccc23)CC1 [Preparative Example 141, 4-(4-(3-chloro-4-fluorophenyl)-1-((1-methylpiperidin-4-yl)methyl)-1H-imidazol-5-yl)-1H-pyrrolo[2,3-b]pyridine]	43%	0%
CN(C)[C@H]1C[C@H](n2cnc(-c3ccc(F)cc3)c2-c2ccnc3[nH]ccc23)C1 [Preparative Example 124, (1S,3r)-3-(4-(4-fluorophenyl)-5-(1H-pyrrolo[2,3-b]pyridin-4-yl)-1H-imidazol-1-yl)-N,N-dimethylcyclobutan-1-amine]	55%	53%
CN(C)[C@H]1C[C@@H](Cn2cnc(-c3ccc(F)cc3)c2-c2ccnc3[nH]ccc23)C1 [Preparative Example 89]	59%	70%
CN(C)Cc1nc(-c2ccc(F)cc2)c(-c2ccnc3[nH]ccc23)n1C1CCCCC1 [Preparative Example 169, 1-(1-cyclohexyl-4-(4-fluorophenyl)-5-(1H-pyrrolo[2,3-b]pyridin-4-yl)-1H-imidazol-2-yl)-N,N-dimethylmethanamine]	12%	0%
c1cc(-c2c(-c3ccsc3)ncn2C2CCCCC2)c2cc[nH]c2n1 [Preparative Example 42, 4-(1-cyclohexyl-4-(thiophen-3-yl)-1H-imidazol-5-yl)-1H-pyrrolo[2,3-b]pyridine]	76%	12%
Brc1cccc(-c2ncn(C3CCCCC3)c2-c2ccnc3[nH]ccc23)c1 [Preparative Example 6, 4-(4-(3-bromophenyl)-1-cyclohexyl-1H-imidazol-5-yl)-1H-pyrrolo[2,3-b]pyridine]	37%	42%
CCOC(=O)N1CCC(n2cnc(-c3ccc(F)cc3)c2-c2ccnc3[nH]ccc23)CC1 [Preparative Example 70, Ethyl 4-(4-(4-fluorophenyl)-5-(1H-pyrrolo[2,3-b]pyridin-4-yl)-1H-imidazol-1-yl)piperidine-1-carboxylate]	72%	11%
CC(=O)N[C@H]1CC[C@@H](n2cnc(-c3ccc(F)cc3)c2-c2ccnc3[nH]ccc23)CC1 [Preparative Example 75, N-(cis-4-(4-(4-fluorophenyl)-5-(1H-pyrrolo[2,3-b]pyridin-4-yl)-1H-imidazol-1-yl)cyclohexyl)acetamide]	83%	66%
c1ccc(-c2ncn(C3CCCCC3)c2-c2ccnc3[nH]ccc23)cc1 [Preparative Example 8]	32%	4%
